From patent US20080090770A1, “Modulation of Muc1 Mediated Signal Transduction” (priority 2003, published 2008)

Assays:
[1] = target: T1, biotinylated TAT-MUC1 binding to ZO1 d2 (Homo sapiens, UniProt Q07157); assay: Modified ELISA: competition with binding of biotinylated TAT-MUC1 peptide (SEQ ID NO: 134) to PDZ domain
T1 construct: made in house; host or cells: E. coli
T1 sequence (Q07157 186-264 limits assumed): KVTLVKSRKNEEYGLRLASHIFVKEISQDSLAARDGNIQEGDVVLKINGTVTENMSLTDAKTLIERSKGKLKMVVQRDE

[2] = target: T2, KIAA0751 (RIM2) PDZ domain 1 (Homo sapiens, UniProt Q9UQ26); assay: Modified ELISA: titration of biotinylated peptide against GST-PDZ domain fusion protein; assay type: binding
T2 construct: RIM2, PDZ domain 1: GI#: 12734165; made in house; host or cells: E. coli
T2 sequence (Q9UQ26 668-754 limits assumed): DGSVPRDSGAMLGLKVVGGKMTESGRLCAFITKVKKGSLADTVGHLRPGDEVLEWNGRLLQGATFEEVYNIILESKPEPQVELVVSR
Experimental: Coat plate with 100 μl of 5 μg/ml anti-GST, O/N at 4° C.;
Dump contents of plate & out tap dry on paper towels;
Block with 200 μl Assay Buffer for 2 hrs at room temperature;
Prepare proteins in Assay Buffer;
Add proteins at 50 μl per well, incubate 1 to 2 hrs at 4° C.;
Prepare peptides in Assay Buffer;
Add peptides at 50 μl per well on ice (write time on plate);
Incubate on ice after last peptide has been added for exactly 10 minutes;
Place at room temp for exactly 20 minutes;
Prepare HRP-Streptavidin within 10 minutes of time of use;
Promptly wash 3× with cold PBS;
Add 100 μl per well of HRP-Streptavidin (write time on plate);
Incubate at 4° C. for exactly 20 minutes;
Turn on plate reader and prepare files;
Promptly wash 5× with PBS at room temperature;
Add 100 μl/well TMB substrate (write time on plate);
Incubate in dark at room temp for a maximum of 30 minutes;
Read plate at 25 minutes (650 nm);
Stop reaction with 100 μl of 0.18M H2SO4, 30 min. after adding TMB;
Take last reading at 450 nm soon after stopping reaction;
Titrations to determine relative EC50 values: Peptide corresponding to MUC1 was then titrated against a constant amount of the PDZ domain-containing recombinant proteins identified in the first part of this example.
Using the modified ELISA described supra in Example 6, the effect of two variant carboxy-terminal MUC1 peptides were examined. Two MUC1 isoforms with an A/T substitutions at the fifth amino acid residue from the carboxy-terminal end have been reported in the literature, e.g., carboxy-terminal AAASANL disclosed in GenBank P15941 [gi:547937] and carboxy-terminal AATSANL disclosed in GenBank A35175 [gi:11385307]. Peptides were prepared consisting of the TAT sequence SEQ ID NO: 102 and the terminal nine amino acid residues of the relevant MUC1 sequence, i.e., […]
Using the modified ELISA described supra in Example 7, the binding to the RIM2 PDZ domain of the biotinylated peptide sequences listed in Table 8 were examined. […] Relative EC50 values were calculated from a curve fit of the data for each interaction.

[3] = tested on: PDZ domains; assay: Self-competition experiments in modified ELISA; assay type: binding, human; conditions: of the three peptides tested

## YGRKKRRQRRRQDEEEGIWA [SEQ ID NO: 137]
[1]
  Competition for binding of biotinylated SEQ ID NO: 134 (TAT-MUC1): only a relatively weak competitor
[2]
  EC50 for binding to RIM2, compared with SEQ ID NO: 136: lower EC50
  Selectivity of binding, RIM2 versus ZO 1 d2: binds RIM2 more strongly than ZO 1 d2
[2]; comparison of SEQ ID NO: 136, 137, 138
  Tightness of binding to RIM2 among the three peptides: binds most tightly
[3]
  Behaviour in self-competition experiments: acts the most like a traditional competitive inhibitor
